Measured values: US12599597B2, “Substituted N-benzhydrylacetamide inhibitors of jumanji domain histone demethylases for the treatment of cancer” (University of Kentucky Research Foundation, priority 2020, dated 2026)
Values belong to the compound of their own block, whether it stands above or below them.

Experiments:
Wnt signaling = assay: TOPFlash (Wnt) reporter assay in stable HEK293T cell line; assay type: cell-based; conditions: for Percent inhibition at 1 μM: Table 3, Wnt reporter assay at 1 μM
Description: Wnt signaling is a key target for multiple human cancers, including but not limited to colon cancer, liver cancer, and lung cancer. To identify novel Wnt regulators by high throughput screening, a stable HEK293T cell line containing the TOPFlash reporter was established. Since β-catenin is often activated by mutations in the Wnt pathway, it is important to inhibit Wnt signaling downstream of β-catenin activity. Therefore, the screen was specifically designed to identify Wnt inhibitors that target events downstream of β-catenin. The Wnt signaling was activated by treating cells with lithium chloride to inhibit GSK3 and to stabilize β-catenin, mimicking the constitutively active Wnt signaling in cancer cells. Through this screen, a family of novel Wnt inhibitors that inhibited Wnt signaling at a 0.5-10 μM concentrations (Table 1) was identified.
After 6 h, the cells were treated with 25 mM LiCl to activate Wnt signaling. The inhibition ratio of each compound was determined (Table 1).
For the SAR studies, 58B1 (VMS-7-133) was re-synthesized. Additionally, SD70, a commercial KDM4 inhibitor, was both purchased and re-synthesized (VMS-7-175). […] VMS-7-195 is a biotinylated analog of 58B1. […] Specific KDM inhibitors may be used to target specific KDMs, such as KDM3A, which is highly expressed in many human cancers.
Identification of a CBA-1 as a novel Wnt inhibitor. The present inventors routinely use TOPFlash reporter assay for Wnt inhibitor screening. To mimic the constitutively active Wnt signaling found in CRC cells, Wnt signaling was activated by inhibiting GSK3 and stabilizing β-catenin. From screening in house small-molecule libraries, CBA-1 (FIG. 4) was identified that inhibited Wnt signaling in TOPFlash reporter assay. To validate the screening results, CBA-1 was tested in CRC cells.

Jarid1B (KDM5B) = Jarid1B (KDM5B) (Homo sapiens, UniProt Q9UGL1); assay: Histone demethylase assay, purified enzyme panel; assay type: biochemical; conditions: Reference inhibitor
Chain of Jarid1B (KDM5B) (Q9UGL1 whole entry): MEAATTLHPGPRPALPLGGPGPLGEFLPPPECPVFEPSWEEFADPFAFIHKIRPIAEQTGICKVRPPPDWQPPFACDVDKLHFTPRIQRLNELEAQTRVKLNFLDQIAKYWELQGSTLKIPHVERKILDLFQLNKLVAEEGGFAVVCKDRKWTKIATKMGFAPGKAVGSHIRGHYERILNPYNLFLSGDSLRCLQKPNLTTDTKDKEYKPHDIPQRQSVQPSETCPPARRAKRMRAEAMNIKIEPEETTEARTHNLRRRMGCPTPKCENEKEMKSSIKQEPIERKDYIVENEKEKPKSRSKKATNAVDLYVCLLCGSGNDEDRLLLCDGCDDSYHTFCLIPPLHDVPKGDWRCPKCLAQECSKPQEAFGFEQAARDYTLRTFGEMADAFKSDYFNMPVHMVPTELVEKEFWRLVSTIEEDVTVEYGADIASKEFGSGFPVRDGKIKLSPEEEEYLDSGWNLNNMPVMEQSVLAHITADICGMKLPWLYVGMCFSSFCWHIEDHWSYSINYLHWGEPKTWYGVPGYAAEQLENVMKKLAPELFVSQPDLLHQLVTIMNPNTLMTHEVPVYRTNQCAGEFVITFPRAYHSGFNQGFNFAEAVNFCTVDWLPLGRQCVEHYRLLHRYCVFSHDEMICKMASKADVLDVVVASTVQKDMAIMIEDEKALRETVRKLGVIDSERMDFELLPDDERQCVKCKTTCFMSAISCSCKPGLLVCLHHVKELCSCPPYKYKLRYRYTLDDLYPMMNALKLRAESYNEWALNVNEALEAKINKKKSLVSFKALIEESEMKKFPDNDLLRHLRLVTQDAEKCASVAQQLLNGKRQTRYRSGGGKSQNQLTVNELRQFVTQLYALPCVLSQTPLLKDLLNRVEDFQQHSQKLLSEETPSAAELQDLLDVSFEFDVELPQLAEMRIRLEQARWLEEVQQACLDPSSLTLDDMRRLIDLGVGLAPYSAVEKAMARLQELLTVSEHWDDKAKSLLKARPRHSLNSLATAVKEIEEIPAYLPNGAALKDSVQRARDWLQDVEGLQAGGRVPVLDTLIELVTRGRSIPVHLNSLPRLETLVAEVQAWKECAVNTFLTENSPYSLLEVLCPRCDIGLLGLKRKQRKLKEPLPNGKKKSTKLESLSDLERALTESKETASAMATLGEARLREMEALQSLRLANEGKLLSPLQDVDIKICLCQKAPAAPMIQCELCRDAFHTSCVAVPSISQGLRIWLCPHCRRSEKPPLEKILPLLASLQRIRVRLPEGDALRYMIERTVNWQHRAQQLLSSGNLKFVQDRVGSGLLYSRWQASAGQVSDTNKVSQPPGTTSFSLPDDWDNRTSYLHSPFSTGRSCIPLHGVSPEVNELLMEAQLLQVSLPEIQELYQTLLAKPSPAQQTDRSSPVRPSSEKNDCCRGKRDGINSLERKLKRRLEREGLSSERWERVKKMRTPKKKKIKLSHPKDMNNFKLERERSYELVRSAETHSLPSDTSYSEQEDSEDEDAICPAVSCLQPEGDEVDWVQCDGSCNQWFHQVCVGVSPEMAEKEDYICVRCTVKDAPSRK
Description: (§1) Histone Demethylase Assay
(§2) To further examine the effects of 58B1 on histone demethylase, we screened a panel of purified histone demethylases was screened.

UTX (KDM6A) = UTX (KDM6A) (Homo sapiens, UniProt O15550); assay: Histone demethylase assay, purified enzyme panel; assay type: biochemical; conditions: Reference inhibitor
Chain of UTX (KDM6A) (O15550 whole entry): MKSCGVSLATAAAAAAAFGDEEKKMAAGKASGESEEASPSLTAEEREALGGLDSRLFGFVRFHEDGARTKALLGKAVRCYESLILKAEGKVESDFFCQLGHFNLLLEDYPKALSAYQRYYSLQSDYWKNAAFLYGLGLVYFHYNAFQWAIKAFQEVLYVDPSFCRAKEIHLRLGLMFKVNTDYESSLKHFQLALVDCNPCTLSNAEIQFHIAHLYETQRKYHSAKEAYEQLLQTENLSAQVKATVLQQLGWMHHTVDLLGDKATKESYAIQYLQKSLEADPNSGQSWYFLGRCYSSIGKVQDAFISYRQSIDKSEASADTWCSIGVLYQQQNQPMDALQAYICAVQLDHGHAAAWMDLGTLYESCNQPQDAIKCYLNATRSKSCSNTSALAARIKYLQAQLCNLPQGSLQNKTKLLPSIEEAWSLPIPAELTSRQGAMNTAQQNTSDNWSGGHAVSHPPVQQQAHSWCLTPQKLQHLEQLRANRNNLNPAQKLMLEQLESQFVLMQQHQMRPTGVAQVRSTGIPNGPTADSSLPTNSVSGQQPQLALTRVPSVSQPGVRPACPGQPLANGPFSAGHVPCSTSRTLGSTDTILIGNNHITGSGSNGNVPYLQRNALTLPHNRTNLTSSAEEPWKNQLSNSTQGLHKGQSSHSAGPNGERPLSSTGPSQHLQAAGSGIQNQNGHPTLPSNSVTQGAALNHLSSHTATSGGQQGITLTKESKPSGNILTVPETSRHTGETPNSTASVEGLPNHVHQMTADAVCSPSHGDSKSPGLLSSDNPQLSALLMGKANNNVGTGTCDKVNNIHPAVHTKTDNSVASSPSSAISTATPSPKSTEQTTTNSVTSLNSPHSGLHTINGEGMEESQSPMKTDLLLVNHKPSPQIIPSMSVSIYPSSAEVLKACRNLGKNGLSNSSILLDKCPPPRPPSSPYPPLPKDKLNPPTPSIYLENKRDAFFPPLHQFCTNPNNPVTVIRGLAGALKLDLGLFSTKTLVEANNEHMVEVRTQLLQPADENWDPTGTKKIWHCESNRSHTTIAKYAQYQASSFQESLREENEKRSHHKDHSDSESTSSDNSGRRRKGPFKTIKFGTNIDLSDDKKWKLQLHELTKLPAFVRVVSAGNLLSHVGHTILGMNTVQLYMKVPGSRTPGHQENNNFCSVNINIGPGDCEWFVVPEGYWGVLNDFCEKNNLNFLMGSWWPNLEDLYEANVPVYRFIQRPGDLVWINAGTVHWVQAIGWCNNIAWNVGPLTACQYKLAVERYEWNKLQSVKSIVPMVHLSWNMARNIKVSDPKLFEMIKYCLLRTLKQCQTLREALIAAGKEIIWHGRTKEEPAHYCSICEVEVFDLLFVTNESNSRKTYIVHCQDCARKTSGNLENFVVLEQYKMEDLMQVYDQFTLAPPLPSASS
Description: as §1, §2

JMJD1A (KDM3A) = biological target: T1, JMJD1A (KDM3A) (Homo sapiens, UniProt Q9Y4C1); assay: Histone demethylase assay / KDM3A enzymatic activity in vitro; assay type: biochemical; conditions: for enzymatic activity of KDM3A: FIG. 12C
T1 sequence (Q9Y4C1 1-1321): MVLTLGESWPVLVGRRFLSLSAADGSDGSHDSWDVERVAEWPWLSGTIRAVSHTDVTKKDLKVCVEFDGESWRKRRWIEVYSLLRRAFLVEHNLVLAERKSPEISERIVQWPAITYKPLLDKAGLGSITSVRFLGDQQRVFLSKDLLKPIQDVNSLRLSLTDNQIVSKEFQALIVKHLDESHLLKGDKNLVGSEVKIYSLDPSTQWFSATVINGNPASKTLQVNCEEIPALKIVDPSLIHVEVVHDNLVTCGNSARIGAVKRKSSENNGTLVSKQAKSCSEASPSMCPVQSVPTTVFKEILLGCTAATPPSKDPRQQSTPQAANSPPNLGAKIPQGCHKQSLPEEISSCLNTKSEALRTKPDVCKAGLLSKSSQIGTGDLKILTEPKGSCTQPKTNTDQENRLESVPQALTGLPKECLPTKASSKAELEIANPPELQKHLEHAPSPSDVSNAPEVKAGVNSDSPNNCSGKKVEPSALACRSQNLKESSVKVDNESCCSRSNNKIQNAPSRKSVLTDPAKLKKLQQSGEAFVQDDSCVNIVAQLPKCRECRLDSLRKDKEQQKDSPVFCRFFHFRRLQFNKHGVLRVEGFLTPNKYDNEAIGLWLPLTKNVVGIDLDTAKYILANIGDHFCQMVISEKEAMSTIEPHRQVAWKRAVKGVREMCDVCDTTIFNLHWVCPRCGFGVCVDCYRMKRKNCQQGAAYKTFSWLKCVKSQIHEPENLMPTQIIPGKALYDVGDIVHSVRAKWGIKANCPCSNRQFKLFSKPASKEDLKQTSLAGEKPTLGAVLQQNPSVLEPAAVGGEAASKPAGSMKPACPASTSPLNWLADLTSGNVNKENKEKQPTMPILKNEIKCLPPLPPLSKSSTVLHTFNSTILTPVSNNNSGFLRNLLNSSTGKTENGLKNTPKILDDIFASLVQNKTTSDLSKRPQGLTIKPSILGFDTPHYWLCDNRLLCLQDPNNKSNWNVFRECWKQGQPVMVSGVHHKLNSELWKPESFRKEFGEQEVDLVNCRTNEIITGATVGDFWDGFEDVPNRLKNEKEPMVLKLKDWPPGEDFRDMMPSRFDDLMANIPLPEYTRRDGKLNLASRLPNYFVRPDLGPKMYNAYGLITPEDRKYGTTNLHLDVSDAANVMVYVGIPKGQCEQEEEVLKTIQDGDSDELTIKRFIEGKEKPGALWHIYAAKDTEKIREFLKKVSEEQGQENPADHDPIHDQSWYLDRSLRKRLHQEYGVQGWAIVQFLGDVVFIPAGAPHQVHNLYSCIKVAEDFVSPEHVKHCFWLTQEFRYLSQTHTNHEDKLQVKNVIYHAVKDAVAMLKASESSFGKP
Description: as §1, §2
Identification of KDM3A as a target of CBA-1. KDM3A regulated H3K9Me^2 and underwent significant upregulation in CRC. To test if CBA-1 targeted KDM3A, a biotinylated analog CBA-B2 (FIG. 7A) was synthesized. […] Knocking-down KDM3A by shRNA inhibited cell proliferation (FIG. 7D) and Wnt target gene expression in LS174T CRC cells (FIG. 7E).
(§3) Repurposing drugs as CBA-1 analogs and KDM3 inhibitors. CBA-1 is a specific and potent KDM3A inhibitor. As backup candidates, two approved drugs were identified as CBA-1 analogs and KDM3A inhibitors. Based on the docking study (FIGS. 8A-B), the N and OH groups (red color in FIG. 12A) are critical in binding the Mn^2+ in KDM3A. […] A virtual screening was performed and several antibiotics that have similar structures were identified. Two of these antibiotics, clioquinol and nitroxoline (FIG. 12B), indeed inhibited the enzymatic activities of KDM3 (FIGS. 12C and D). These two drugs were tested in LS174T tumor xenograft model in SCID mice. […] Nitroxoline has been used in Europe for over 50 years as an antibiotic. It has anticancer effects, but the mechanism remains unclear.

KDM3B = KDM3B (Homo sapiens, UniProt Q7LBC6); assay: KDM3B enzymatic activity; assay type: biochemical; conditions: FIG. 12D
Chain of KDM3B (Q7LBC6 whole entry, the tested form may be a part): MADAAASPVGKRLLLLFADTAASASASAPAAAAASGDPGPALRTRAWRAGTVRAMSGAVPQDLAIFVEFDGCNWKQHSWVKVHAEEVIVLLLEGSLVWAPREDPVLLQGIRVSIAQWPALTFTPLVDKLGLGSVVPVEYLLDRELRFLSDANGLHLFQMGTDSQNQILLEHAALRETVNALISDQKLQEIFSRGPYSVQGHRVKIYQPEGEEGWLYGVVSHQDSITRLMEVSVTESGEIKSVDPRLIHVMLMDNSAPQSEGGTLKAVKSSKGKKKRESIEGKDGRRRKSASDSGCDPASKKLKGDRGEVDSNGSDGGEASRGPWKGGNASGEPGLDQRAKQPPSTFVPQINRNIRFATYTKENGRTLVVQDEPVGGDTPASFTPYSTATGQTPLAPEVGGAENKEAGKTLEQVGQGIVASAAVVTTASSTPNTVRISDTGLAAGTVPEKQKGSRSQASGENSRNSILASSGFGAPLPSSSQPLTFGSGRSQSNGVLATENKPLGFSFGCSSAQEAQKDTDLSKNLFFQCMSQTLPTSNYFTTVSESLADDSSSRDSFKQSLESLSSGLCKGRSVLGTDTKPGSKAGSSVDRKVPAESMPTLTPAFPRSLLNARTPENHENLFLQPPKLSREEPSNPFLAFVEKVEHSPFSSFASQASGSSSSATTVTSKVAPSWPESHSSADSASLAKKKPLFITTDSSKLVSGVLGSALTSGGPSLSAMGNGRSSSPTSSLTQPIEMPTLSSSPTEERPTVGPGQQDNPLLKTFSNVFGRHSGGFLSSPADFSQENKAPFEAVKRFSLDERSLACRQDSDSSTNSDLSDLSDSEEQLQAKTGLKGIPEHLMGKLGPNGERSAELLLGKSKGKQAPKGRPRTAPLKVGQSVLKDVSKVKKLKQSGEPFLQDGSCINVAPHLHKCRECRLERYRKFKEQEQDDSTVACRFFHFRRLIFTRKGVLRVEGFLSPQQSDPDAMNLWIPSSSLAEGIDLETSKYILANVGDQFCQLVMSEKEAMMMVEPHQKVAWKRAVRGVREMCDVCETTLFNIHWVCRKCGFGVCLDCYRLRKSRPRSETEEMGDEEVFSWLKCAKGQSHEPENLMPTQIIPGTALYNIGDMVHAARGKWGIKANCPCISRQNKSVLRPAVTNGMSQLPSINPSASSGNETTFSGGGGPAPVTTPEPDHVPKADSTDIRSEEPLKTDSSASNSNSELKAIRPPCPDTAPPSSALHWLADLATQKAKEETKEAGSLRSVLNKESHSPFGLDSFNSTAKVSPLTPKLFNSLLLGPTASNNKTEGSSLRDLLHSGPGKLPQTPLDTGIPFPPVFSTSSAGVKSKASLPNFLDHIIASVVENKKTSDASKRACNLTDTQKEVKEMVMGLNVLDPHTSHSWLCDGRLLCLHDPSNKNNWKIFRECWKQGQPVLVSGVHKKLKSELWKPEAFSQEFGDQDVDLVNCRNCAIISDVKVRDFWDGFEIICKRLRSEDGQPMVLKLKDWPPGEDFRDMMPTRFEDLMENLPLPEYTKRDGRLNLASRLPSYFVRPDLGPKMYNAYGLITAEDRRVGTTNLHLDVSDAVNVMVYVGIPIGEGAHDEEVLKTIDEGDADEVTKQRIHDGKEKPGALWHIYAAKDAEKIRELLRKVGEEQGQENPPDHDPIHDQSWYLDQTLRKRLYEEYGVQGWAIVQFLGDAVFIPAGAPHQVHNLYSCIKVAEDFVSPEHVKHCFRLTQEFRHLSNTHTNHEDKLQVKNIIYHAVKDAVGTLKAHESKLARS
Description: Other KDM3 members as CBA-1 targets. Inhibition of KDM3A by CBA-1 increased H3K9Me^2 and inhibited Wnt signaling; however, other KDM3 members may also regulate H3K9 methylation. For example, both KDM3B and KDM3C (JMJD1C) regulated Wnt signaling. Given the high similarity of their structures (FIG. 10A), particularly the JmjC domains, it is believed that CBA-1 would inhibit KDM3B and KDM3C as well. […] CBA-1 coordinated with Mn^2+ at a longer distance in KDM3B (3.9 Å) than the distance in KDM3A (2.8 Å) (FIGS. 8B and 10B). This could be one of the reasons that CBA-1 inhibited KDM3A better than KDM3B.
as §3

LS174T CRC xenografts = assay: LS174T tumor xenograft model in SCID mice; assay type: in vivo; conditions: 50 mg/kg, p.o.
Procedure: FIGS. 12A-E show images and graphs illustrating CBA-1 analogs from antibiotics. (A) Interaction of CBA-1 with Mn^2+. (B) Clioquinol (X=Cl; Y=I) and nitroxoline. (C-D) Inhibition of (C) KDM3A and (D) KDM3B enzymatic activities. (E) CBA-1 analogs (50 mg/kg, p.o.) inhibited LS174T CRC xenografts in SCID mice.
as §3

[1] = Homo sapiens, HEK-293T, Table 1, HEK293T TOPFlash, 25 mM LiCl after 6 h

SMILES: CCCC(=O)NC(c1ccco1)c1cc(Cl)c2cccnc2c1O (centres unmarked) [48M1]
inhibition (Wnt signaling; [1]): 82%

SMILES: CCC(=O)NC(c1ccco1)c1cc(Cl)c2cccnc2c1O (centres unmarked) [58B6]
inhibition (Wnt signaling; [1]): 73%

SMILES: CC(=O)NC(c1ccc(N(C)C)cc1)c1cc(Cl)c2cccnc2c1O (centres unmarked) [58D8]
inhibition (Wnt signaling; [1]): 90%

SMILES: CCCC(=O)NC(c1ccc(N(C)C)cc1)c1cc(Cl)c2cccnc2c1O (centres unmarked) [58F8]
inhibition (Wnt signaling; [1]): 88%

SMILES: CC(=O)NC(c1ccc(Cl)cc1)c1cc([N+](=O)[O-])c2cccnc2c1O (centres unmarked) [58H8]
inhibition at 2.5 µM (Wnt signaling; Homo sapiens, HEK-293T, Table 1, HEK293T TOPFlash, 2.5 µM of each compound, 25 mM LiCl after 6 h): 80%

SMILES: O=C(O)CCNc1cc(N2CCc3ccccc3CC2)nc(-c2ccccn2)n1 [GSK-J1, reference compound]
% Inhibition (Jarid1B (KDM5B)): 100%
% Inhibition (UTX (KDM6A)): 100%

% Inhibition (JMJD1A (KDM3A); Reference inhibitor): 100%
SMILES: Clc1ccc(N/N=C(\c2ccccc2)c2ccccn2)nc1 [JIB-04]

SMILES: CC(C)C(=O)NC(c1ccco1)c1ccc2cccnc2c1O (centres unmarked) [SD70, reference compound]
Percent inhibition at 1 μM (Wnt signaling; 1 µM): 53.8%
Percent inhibition at 1 μM (Wnt signaling; listed as VMS-7-175, 1 µM): 49.7%

SMILES: CCCC(=O)NC(c1ccc(N2CCC(C(=O)OCC)CC2)cc1)c1cc(Cl)c2cccnc2c1O (centres unmarked) [VMS-7-183]
Percent inhibition at 1 μM (Wnt signaling): 85.6%

SMILES: Oc1c(I)cc(Cl)c2cccnc12 [clioquinol]
enzymatic activity of KDM3A (JMJD1A (KDM3A)): inhibited
enzymatic activity of KDM3B (KDM3B): inhibited
tumor growth (LS174T CRC xenografts): inhibited tumor growth

enzymatic activity of KDM3A (JMJD1A (KDM3A)): inhibited
enzymatic activity of KDM3B (KDM3B): inhibited
SMILES: O=[N+]([O-])c1ccc(O)c2ncccc12 [nitroxoline]
tumor growth (LS174T CRC xenografts): inhibited tumor growth
